Usually inhibition stands for how much of the control response was suppressed. A word on the bioavailability: it is the share of a dose that reaches the circulation, judged against a reference dose that is usually intravenous. What is called logP is a log measure of how a compound divides between an organic and an aqueous phase. Broadly, the Papp A→B is the apparent permeability from the apical to the basolateral side of a cell layer. By IC50 is commonly meant the concentration that inhibits the measured activity by half.

For data set [1], the target named is Vascular endothelial growth factor receptor 2 (Homo sapiens) (UniProt P35968). Kind of data set: Inhibition of KDR (unknown origin) at 1 uM relative to control.
Data set [2] has as its target Proto-oncogene tyrosine-protein kinase receptor Ret (Homo sapiens) (UniProt P07949). Briefly: Inhibition of RET (unknown origin) at 1 uM relative to control.
Data set [3] is described as follows: Metabolic stability in mouse liver microsomes assessed as parent compound remaining at 1 uM after 30 mins by LC-ESI-TOF/MS method. In kind it is ADME, microsome. The settings on record: read-out: Stability.
Data set [4] is described as follows: Metabolic stability in rat liver microsomes assessed as parent compound remaining at 1 uM after 30 mins by LC-ESI-TOF/MS method. The class given is ADME, microsome. The settings on record: read-out: Stability. On the technique in general: Liver microsomes are vesicles of endoplasmic reticulum, rich in cytochrome P450 enzymes.
Data set [5] is described as follows: Metabolic stability in human liver microsomes assessed as parent compound remaining at 1 uM after 30 mins by LC-ESI-TOF/MS method. The class given is ADME, microsome. The settings on record: read-out: Stability.
Data set [6] in a line: Oral bioavailability in Balb/c mouse at 10 mg/kg by LC-ESI-TOF/MS or LC-ESI-MS/MS method. In kind it is ADME, organism-based. The settings on record: in vivo.
Data set [7] is described as follows: Oral bioavailability in Sprague-Dawley rat at 10 mg/kg by LC-ESI-TOF/MS or LC-ESI-MS/MS method. The settings on record: in vivo. In kind it is ADME, organism-based.
Data set [8] in a line: Oral bioavailability in Beagle dog at 5 mg/kg by LC-ESI-TOF/MS or LC-ESI-MS/MS method. In kind it is ADME, organism-based, Canis lupus familiaris. The note with it: in vivo.
Data set [9] can be described thus: Oral bioavailability in cynomolgus monkey at 5 mg/kg by LC-ESI-TOF/MS or LC-ESI-MS/MS method. The class given is ADME, organism-based, Macaca fascicularis. The note with it: in vivo.
The target in data set [10] is T1, Serine/threonine-protein kinase 17A (Homo sapiens) (UniProt Q9UEE5).
T1 sequence (whole entry): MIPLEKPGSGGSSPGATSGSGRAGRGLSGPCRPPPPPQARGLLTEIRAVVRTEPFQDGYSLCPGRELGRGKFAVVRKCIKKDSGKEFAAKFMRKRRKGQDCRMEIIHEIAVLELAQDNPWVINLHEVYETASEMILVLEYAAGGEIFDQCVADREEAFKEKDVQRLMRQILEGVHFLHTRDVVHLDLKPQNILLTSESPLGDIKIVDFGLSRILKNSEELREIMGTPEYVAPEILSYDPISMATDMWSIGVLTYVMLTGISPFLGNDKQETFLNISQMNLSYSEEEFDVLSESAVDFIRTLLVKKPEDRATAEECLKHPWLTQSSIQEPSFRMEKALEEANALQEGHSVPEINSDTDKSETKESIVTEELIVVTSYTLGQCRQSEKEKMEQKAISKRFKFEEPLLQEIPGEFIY
Briefly: Inhibition of DRAK1 (unknown origin) at 1 uM relative to control.

In data set [11] the target is Serine/threonine-protein kinase 17B (Homo sapiens) (UniProt O94768). Kind of data set: Inhibition of DRAK2 (unknown origin) at 1 uM relative to control.
Data set [12] has as its target Dual specificity protein kinase CLK4 (Homo sapiens, UniProt Q9HAZ1). Kind of data set: Inhibition of CLK4 (unknown origin) at 1 uM relative to control.
Data set [13] addresses Leucine-rich repeat serine/threonine-protein kinase 2 (Homo sapiens) (UniProt Q5S007). Kind of data set: Inhibition of LRRK2 (unknown origin) at 1 uM relative to control.
Data set [14] has as its target Receptor-interacting serine/threonine-protein kinase 2 (Homo sapiens) (UniProt O43353). Briefly: Inhibition of RIPK2 (unknown origin) at 1 uM relative to control.
The target of data set [15] is TGF-beta receptor type-2 (Homo sapiens) (UniProt P37173). Briefly: Inhibition of TGFBR2 (unknown origin) at 1 uM relative to control.
Data set [16] deals with Dual specificity tyrosine-phosphorylation-regulated kinase 3 (Homo sapiens) (UniProt O43781). Kind of data set: Inhibition of DYRK3 (unknown origin) at 1 uM relative to control.
Data set [17] addresses T2, Serine/threonine-protein kinase BRSK1 (Homo sapiens) (UniProt Q8TDC3).
T2 sequence (whole entry): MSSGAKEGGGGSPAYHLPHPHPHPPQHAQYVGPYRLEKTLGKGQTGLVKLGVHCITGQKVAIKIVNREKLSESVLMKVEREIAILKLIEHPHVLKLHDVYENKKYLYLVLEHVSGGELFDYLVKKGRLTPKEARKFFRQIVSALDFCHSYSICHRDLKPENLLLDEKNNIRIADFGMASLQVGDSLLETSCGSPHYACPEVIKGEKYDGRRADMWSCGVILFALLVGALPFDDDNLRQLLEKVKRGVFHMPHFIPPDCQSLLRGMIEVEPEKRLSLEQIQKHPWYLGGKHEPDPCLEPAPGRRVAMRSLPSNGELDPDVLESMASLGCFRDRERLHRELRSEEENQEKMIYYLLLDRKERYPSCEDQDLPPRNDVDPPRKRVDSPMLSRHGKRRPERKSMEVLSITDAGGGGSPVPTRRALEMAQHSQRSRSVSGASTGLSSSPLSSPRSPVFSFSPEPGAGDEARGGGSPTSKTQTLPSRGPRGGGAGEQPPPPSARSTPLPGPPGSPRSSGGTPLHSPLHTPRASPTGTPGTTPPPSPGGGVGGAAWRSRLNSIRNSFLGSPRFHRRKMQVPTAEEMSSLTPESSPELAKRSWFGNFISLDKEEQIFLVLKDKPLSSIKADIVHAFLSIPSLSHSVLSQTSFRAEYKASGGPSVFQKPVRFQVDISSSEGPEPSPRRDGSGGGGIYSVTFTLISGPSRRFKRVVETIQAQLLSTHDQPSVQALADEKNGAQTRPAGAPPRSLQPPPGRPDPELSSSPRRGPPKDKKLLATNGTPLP
Kind of data set: Inhibition of BRSK1 (unknown origin) at 1 uM relative to control.

A further data set is described as follows: physchem. The settings on record: octanol/water.
The next data set is described as follows: in vitro. The settings on record: human, Caco-2.
Data set [18] addresses Platelet-derived growth factor receptor alpha (Homo sapiens) (UniProt P16234). Kind of data set: Inhibition of PDGFRA (unknown origin) at 1 uM relative to control.
In data set [19] the target is Receptor-type tyrosine-protein kinase FLT3 (Homo sapiens) (UniProt P36888). Kind of data set: Inhibition of FLT3 (unknown origin) at 1 uM relative to control.
The nature of data set [20]: Oral bioavailability in Beagle dog at 3 mg/kg by LC-ESI-TOF/MS or LC-ESI-MS/MS method. In kind it is ADME, organism-based, Canis lupus familiaris. The settings on record: in vivo.
The nature of data set [21]: Oral bioavailability in cynomolgus monkey at 3 mg/kg by LC-ESI-TOF/MS or LC-ESI-MS/MS method. The settings on record: in vivo. The class given is ADME, organism-based, Macaca fascicularis.
Data set [22] addresses Dual specificity tyrosine-phosphorylation-regulated kinase 2 (Homo sapiens) (UniProt Q92630). Kind of data set: Inhibition of DYRK2 (unknown origin) at 1 uM relative to control.
Data set [23] concerns the target Vascular endothelial growth factor receptor 3 (Homo sapiens) (UniProt P35916). Briefly: Inhibition of FLT4 (unknown origin) at 1 uM relative to control.
Data set [24] has as its target Tyrosine-protein kinase Fgr (Homo sapiens) (UniProt P09769). Briefly: Inhibition of FGR (unknown origin) at 1 uM relative to control.
In data set [25] the target is Ribosomal protein S6 kinase alpha-6 (Homo sapiens) (UniProt Q9UK32). Kind of data set: Inhibition of RSK4 (unknown origin) at 1 uM relative to control.
Data set [26] concerns the target MAP kinase-activated protein kinase 3 (Homo sapiens) (UniProt Q16644). Kind of data set: Inhibition of MAPKAPK3 (unknown origin) at 1 uM relative to control.
Data set [27] concerns the target MAP kinase-interacting serine/threonine-protein kinase 1 (Homo sapiens, UniProt Q9BUB5).

Proto-oncogene tyrosine-protein kinase receptor Ret (Homo sapiens), sequence (P07949 whole entry): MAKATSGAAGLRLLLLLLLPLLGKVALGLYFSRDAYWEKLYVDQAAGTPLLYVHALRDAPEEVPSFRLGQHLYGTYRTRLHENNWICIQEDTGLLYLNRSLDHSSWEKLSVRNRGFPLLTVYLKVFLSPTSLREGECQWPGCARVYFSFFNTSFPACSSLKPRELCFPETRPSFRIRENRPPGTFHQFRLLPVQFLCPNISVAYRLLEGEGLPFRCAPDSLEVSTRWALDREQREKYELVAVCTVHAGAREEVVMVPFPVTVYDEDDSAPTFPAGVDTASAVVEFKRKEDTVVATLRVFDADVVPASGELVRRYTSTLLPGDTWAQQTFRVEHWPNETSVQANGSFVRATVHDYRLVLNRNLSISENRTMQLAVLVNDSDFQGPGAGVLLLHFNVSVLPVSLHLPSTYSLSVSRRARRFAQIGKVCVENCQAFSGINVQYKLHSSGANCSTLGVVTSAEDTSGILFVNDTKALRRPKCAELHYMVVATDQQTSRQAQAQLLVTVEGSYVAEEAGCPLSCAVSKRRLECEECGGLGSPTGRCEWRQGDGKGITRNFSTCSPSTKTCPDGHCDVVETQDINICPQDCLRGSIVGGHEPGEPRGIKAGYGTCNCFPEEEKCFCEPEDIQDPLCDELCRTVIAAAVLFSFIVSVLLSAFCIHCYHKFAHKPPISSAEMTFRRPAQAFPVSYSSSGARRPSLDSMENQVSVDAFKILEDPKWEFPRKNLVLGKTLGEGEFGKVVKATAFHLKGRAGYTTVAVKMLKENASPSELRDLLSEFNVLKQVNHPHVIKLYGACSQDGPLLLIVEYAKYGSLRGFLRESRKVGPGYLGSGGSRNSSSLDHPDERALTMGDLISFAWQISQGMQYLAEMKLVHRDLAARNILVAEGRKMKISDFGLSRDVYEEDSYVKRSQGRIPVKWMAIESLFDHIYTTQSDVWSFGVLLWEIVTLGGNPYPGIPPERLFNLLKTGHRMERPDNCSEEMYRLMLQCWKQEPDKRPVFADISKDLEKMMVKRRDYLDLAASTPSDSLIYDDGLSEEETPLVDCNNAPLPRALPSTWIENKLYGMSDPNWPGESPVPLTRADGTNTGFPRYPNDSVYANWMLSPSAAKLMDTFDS
TGF-beta receptor type-2 (Homo sapiens), sequence (P37173 whole entry): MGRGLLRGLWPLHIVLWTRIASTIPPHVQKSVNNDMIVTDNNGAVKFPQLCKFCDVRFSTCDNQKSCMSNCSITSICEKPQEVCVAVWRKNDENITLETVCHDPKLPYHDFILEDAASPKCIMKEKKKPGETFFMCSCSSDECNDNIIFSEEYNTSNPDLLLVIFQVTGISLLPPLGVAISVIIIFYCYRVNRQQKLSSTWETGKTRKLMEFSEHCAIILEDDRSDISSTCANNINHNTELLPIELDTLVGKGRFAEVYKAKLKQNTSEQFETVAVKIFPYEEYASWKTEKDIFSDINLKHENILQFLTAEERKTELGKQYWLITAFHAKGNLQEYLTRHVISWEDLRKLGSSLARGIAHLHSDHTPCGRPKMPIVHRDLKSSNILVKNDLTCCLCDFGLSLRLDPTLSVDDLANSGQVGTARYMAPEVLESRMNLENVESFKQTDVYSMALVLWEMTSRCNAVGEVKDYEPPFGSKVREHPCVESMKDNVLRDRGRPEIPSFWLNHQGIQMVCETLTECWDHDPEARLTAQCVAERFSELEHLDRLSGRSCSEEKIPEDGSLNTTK
Vascular endothelial growth factor receptor 2 (Homo sapiens), sequence (P35968 whole entry): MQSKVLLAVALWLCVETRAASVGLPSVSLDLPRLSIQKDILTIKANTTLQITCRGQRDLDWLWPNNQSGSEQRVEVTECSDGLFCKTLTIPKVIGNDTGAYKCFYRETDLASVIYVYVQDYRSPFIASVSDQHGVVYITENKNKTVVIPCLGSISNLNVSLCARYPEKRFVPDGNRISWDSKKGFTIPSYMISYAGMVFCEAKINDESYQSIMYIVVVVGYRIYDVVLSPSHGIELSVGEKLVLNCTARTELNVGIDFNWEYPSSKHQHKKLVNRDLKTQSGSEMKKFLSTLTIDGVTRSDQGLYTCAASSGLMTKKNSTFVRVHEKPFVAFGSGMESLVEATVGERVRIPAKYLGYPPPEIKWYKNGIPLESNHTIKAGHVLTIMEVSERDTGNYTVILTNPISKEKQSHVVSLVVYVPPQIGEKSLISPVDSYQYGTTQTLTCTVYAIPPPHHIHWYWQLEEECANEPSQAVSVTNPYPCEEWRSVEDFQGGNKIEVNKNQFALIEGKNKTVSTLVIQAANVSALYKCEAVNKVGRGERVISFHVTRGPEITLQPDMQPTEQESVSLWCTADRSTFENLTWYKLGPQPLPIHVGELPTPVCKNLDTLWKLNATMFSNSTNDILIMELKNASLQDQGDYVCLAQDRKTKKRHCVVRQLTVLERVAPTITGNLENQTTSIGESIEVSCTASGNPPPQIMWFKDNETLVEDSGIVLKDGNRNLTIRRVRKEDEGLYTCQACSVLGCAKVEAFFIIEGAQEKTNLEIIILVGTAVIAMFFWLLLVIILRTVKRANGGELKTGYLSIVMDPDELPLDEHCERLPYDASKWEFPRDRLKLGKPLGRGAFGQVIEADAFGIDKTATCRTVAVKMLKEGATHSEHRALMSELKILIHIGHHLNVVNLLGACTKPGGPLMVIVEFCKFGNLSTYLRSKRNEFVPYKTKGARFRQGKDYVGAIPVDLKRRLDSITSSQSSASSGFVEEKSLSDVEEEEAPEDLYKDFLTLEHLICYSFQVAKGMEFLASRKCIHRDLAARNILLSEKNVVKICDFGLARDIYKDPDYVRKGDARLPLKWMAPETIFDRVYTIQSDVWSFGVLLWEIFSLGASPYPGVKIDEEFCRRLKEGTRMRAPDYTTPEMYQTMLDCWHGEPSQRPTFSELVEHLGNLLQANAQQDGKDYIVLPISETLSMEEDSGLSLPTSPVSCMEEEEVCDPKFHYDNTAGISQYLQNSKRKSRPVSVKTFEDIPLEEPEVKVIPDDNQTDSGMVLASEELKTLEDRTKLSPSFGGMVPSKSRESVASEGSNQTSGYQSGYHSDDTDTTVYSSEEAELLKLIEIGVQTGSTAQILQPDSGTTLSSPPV
Dual specificity protein kinase CLK4, sequence (Q9HAZ1 whole entry, looked up): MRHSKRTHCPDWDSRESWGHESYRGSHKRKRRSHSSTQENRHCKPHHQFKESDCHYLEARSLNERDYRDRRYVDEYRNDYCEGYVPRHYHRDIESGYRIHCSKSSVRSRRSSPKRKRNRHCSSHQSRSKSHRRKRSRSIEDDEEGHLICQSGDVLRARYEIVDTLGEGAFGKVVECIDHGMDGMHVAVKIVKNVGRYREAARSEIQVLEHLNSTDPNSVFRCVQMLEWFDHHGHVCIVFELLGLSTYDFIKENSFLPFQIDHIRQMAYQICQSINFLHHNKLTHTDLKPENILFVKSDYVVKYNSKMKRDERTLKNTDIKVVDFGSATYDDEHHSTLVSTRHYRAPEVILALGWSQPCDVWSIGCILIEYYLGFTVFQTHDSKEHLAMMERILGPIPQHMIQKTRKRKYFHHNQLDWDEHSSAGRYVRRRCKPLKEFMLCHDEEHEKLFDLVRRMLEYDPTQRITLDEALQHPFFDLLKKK
Serine/threonine-protein kinase 17B (Homo sapiens), sequence (O94768 whole entry): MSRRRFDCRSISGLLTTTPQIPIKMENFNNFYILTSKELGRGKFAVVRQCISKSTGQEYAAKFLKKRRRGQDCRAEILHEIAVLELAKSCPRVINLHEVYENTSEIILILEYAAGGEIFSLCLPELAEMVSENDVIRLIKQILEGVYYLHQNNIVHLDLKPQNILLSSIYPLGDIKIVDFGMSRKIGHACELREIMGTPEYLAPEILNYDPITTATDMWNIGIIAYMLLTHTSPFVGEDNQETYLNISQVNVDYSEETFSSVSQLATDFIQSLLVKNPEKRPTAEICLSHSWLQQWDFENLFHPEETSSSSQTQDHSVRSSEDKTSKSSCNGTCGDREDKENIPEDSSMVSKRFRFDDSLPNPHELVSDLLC
Dual specificity tyrosine-phosphorylation-regulated kinase 3 (Homo sapiens), sequence (O43781 whole entry): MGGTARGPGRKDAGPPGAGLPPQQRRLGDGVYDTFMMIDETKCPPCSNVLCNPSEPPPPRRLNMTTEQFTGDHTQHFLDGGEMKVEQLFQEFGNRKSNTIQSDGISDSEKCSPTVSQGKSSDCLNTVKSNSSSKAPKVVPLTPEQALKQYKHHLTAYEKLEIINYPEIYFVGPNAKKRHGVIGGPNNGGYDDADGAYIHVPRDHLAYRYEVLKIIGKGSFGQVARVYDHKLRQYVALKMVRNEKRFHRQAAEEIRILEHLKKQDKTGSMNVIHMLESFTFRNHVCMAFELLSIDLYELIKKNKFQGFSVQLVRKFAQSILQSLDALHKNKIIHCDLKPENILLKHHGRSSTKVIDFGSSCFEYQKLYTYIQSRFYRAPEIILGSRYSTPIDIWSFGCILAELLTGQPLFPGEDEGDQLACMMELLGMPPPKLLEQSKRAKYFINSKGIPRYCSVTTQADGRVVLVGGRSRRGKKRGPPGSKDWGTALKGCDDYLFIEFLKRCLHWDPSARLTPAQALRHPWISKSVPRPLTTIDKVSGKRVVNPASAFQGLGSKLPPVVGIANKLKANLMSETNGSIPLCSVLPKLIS
MAP kinase-interacting serine/threonine-protein kinase 1, sequence (Q9BUB5 whole entry): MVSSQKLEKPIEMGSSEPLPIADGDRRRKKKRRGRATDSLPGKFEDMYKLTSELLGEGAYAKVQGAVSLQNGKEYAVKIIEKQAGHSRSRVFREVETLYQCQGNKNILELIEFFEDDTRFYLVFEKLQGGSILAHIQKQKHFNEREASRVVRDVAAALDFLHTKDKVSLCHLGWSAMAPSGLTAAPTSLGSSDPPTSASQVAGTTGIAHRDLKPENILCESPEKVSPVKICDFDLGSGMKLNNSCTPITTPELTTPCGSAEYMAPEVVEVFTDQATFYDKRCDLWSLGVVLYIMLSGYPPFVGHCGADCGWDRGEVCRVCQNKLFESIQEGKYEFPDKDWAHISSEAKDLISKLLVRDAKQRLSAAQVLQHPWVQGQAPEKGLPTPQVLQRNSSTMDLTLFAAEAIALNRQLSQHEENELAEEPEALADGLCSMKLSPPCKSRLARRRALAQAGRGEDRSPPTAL

In the case of `Nc1cc(Nc2cc(Cl)c3n(c2=O)C2(CCCCC2)NC3=O)ncn1`, the inhibition in data set [1] came out at 71%; in [2] it was 55%; in [10] it was 96%; in data set [11], 82%; in data set [12], 75%; in data set [13] it was 59%. The inhibition in [14] stood at 59%; in data set [15], 57%; in [16] it was 56%; in data set [17] it was 55%. Also, the remaining at 0.5 h, 1 µM was 73% in data set [3], 69% in data set [4] and 89% in data set [5]. Besides, the bioavailability was 58% in [6], 28% in [7], more than 100% in [8] and 50% in data set [9]. The molecule further showed a logP in the data set “physchem” of 3.2. This molecule came in with a Papp A→B at 2 h, 5 µM in “in vitro” of 4.2 ×10⁻⁶ cm/s.

In the case of `Nc1cc(Nc2cc(Cl)c3n(c2=O)C2(CCCC2)NC3=O)ncn1`, the inhibition was determined as 55% in data set [18]; 96% in data set [1]; 87% in [2]; 55% in data set [19]; 95% in [10]; 82% in data set [11]. Further, the inhibition in [12] is 75%; in data set [13], 52%; in [15] it was 74%; in data set [16], 67%; in data set [17] it was 58%; in [22] it was 81%. Also, the inhibition was determined as 89% in data set [23], 60% in data set [24], 58% in data set [25] and 54% in data set [26]. For the same molecule, the remaining at 0.5 h, 1 µM in data set [3] worked out at 71%; in data set [4], 73%; in [5], 85%. Besides, the bioavailability in data set [6] was 80%; in data set [7], 69%; in data set [20], more than 100%; in data set [21], 51%. The molecule further gave an IC50 in data set [27] of 0.88 nM. The molecule further had a logP in “physchem” of 2.4. The molecule also registered an apical-to-basolateral permeability (Papp A→B) at 2 h, 5 µM in “in vitro” of 1.2 ×10⁻⁶ cm/s.

The values are drawn from ChEMBL document CHEMBL4043290, “Structure-based Design of Pyridone-Aminal eFT508 Targeting Dysregulated Translation by Selective Mitogen-activated Protein Kinase Interacting Kinases 1 and 2 (MNK1/2) Inhibition” (J Med Chem, 2018).
